Among the data in EP0761658A1, “Azole-phenyl urea derivatives as ACAT inhibitors and their production” (NIHON NOHYAKU CO., LTD., priority 1995, dated 1997) are Inhibition rate % and inhibition in vivo values, retold here.

The subject of experiment [1] is acyl-CoA:cholesterol acyltransferase (ACAT). Description: Inhibitory activity on acyl-CoA:cholesterol acyltransferase (ACAT), microsomal fraction of intestinal mucosa, [1-14C]oleyl-CoA incorporation into cholesterol esters. It is filed as biochemical, white rabbit. As to conditions: rabbit intestinal mucosa microsomes. On the procedure: The enzyme used in the test was prepared according to the method of Heider et al. [J. Lipid Res. 24, 1127 (1983)]. A white rabbit was killed by blood-letting under anesthesia, after which its intestinal mucosa was collected and then homogenized, and microsomal fraction was obtained by stepwise centrifugation. The microsomal fraction was suspended in 0.154 M phosphate buffer (pH 7.4) and stored at -80°C until use.
ACAT activity was determined by a modification of the method of Helgerud et al. [J. Lipid Res. 22, 271 (1981)] by measuring radioactivity incorporated into cholesterol esters from [1-^14C]oleyl-CoA, as an indication. As to the ACAT-inhibitory activity of each compound to be tested, the inhibition rate was calculated by the following equation. Inhibition rate (%) =([ACAT activity of control group which was given solvent]-[ACAT activity of group treated with compound to be tested])/([ACAT activity of control group which was given solvent])x 100 [formula]

Experiment [2] concerns rats fed on a high-cholesterol diet. The experiment is described as follows: Serum cholesterol lowering activity in rats fed on a high-cholesterol diet. Format: in vivo, Male Sprague-Dawley rats. As to conditions: Rattus norvegicus, 96 h; total serum cholesterol; 30 mg per kg of body weight per day for 4 days, suspended in 0.5% carboxymethyl cellulose; blood 24 hours after last administration; read-out: Reduction rate (%). On the procedure:
Male Sprague-Dawley rats of 6-week-old were divided into three groups. The first group (normal group) was fed an ordinary diet for 4 days. The second group (control group) was fed a high cholesterol diet (containing 1.0% cholesterol, 1.0% cholic acid and 8.5% coconut oil) for 4 days. The third group (treated group) was fed a high cholesterol diet and was treated with a compound for 4 days.
Simultaneously with the beginning of the above feeding, the compound was suspended in a 0.5% carboxymethyl cellulose solution and administered to the treated group, in a dose of 30 mg (in terms of the compound) per kg of body weight per day for 4 days. A 0.5% carboxymethyl cellulose solution was also administered to the normal group and the control group in the same manner as above.
After 24 hours of the last administration, blood was collected and the cholesterol concentration in serum was measured by an enzymatic method. The reduction rate of the total serum cholesterol concentration was calculated from values obtained for the three groups by the following equation. Choresterol reduction rate (%) =((A) - (B))/((A) - (C))x 100 [formula] wherein A: the serum cholesterol concentration of the control group. B: the serum cholesterol concentration of the treated group. C: the serum cholesterol concentration of the normal group.

[3] abbreviates: compound concentration 1 (head prints '1 | 0.01 µm').

Regarding `CC(C)c1cccc(C(C)C)c1NC(=O)Nc1sc(-c2ccccc2)nc1-c1ccccc1Cl` [Compound 1, N-[4-(2-Chlorophenyl)-2-phenylthiazol-5-yl]-N'-(2,6-diisopropylphenyl)urea], the Inhibition rate % is 38.7% in experiment [1] (compound concentration 0.01 µm) and 99.9% in experiment [1] (setting [3]). In experiment [2], the inhibition in vivo at 30 mg/kg is 53.8%.

As to `Cc1ccccc1-c1nc(-c2ccccc2)sc1NC(=O)Nc1c(C(C)C)cccc1C(C)C` [Compound 2, N-(2,6-Diisopropylphenyl)-N'-[4-(2-methylphenyl)-2-phenylthiazol-5-yl]urea], the Inhibition rate % in experiment [1] (compound concentration 0.01 µm) is given as 55.2%; in experiment [1] (setting [3]) it was 99.8%. Also, in experiment [2], the inhibition in vivo at 30 mg/kg was determined as 85.7%.

Turning to `Cc1nc(-c2ccccc2)c(NC(=O)Nc2c(C(C)C)cccc2C(C)C)s1` [Compound 3, N-(2,6-Diisopropylphenyl)-N'-(2-methyl-4-phenylthiazol-5-yl)urea], the Inhibition rate % in experiment [1] (setting [3]) worked out at 92.1%.

Turning to `Cc1nc(-c2ccccc2Cl)c(NC(=O)Nc2c(C(C)C)cccc2C(C)C)s1` [Compound 4, N-[4-(2-Chlorophenyl)-2-methylthiazol-5-yl]-N'-(2,6-diisopropylphenyl)urea], in experiment [1] (compound concentration 0.01 µm), the Inhibition rate % is 63.9%.

In experiment [1] (setting [3]), `CCc1cccc(CC)c1NC(=O)Nc1sc(C)nc1-c1ccccc1Cl` [Compound 5, N-[4-(2-Chlorophenyl)-2-methylthiazol-5-yl]-N'-(2,6-diethylphenyl)urea] showed an Inhibition rate % of 97.8%.

For the compound `Cc1nc(-c2ccccc2Cl)c(NC(=O)Nc2ccc(F)cc2F)s1` [Compound 6, N-[4-(2-Chlorophenyl)-2-methylthiazol-5-yl]-N'-(2,4-difluorophenyl)urea], the Inhibition rate % in experiment [1] (setting [3]) came out at 46.1%.

In the case of `Cc1nc(-c2ccccc2C)c(NC(=O)Nc2c(C(C)C)cccc2C(C)C)s1` [Compound 8, N-(2,6-DiisopropylphenyI)-N'-[2-methyl-4-(2-methylphenyl)thiazol-5-yl]urea], in experiment [1] (setting [3]), the Inhibition rate % was found to be 99.1%.

In experiment [1] (setting [3]), `Cc1nc(-c2ccccc2C)c(NC(=O)Nc2ccc(F)cc2F)s1` [Compound 9, N-(2,4-Difluorophenyl)-N'-[2-methyl-4-(2-methylphenyl)thiazol-5-yl]urea] returned an Inhibition rate % of 49.4%.

With `CCc1nc(-c2ccccc2Cl)c(NC(=O)Nc2c(C(C)C)cccc2C(C)C)s1` [Compound 11, N-[4-(2-Chlorophenyl)-2-ethylthiazol-5-yl]-N'-(2,6-diisopropylphenyl)urea], the Inhibition rate % stood at 42.9% in experiment [1] (compound concentration 0.01 µm) and 99.2% in experiment [1] (setting [3]). In addition, in experiment [2], the inhibition in vivo at 30 mg/kg amounted to 46.2%.

As for `CCCCCc1nc(-c2ccccc2Cl)c(NC(=O)Nc2c(C(C)C)cccc2C(C)C)s1` [Compound 12, N-[4-(2-Chlorophenyl)-2-n-pentylthiazol-5-yl]-N'-(2,6-diisopropylphenyl)urea], in experiment [1] (setting [3]), the Inhibition rate % came to 96.2%.

Consider `CC(C)c1cccc(C(C)C)c1NC(=O)Nc1sc(C2CCCCC2)nc1-c1ccccc1Cl` [Compound 13, N-[4-(2-Chlorophenyl)-2-cyclohexylthiazol-5-yl]-N'-(2,6-diisopropylphenyl)urea], for which the Inhibition rate % in experiment [1] (setting [3]) amounted to 72.7%.

As to `CC(C)c1cccc(C(C)C)c1NC(=O)Nc1sc(N(C)C)nc1-c1ccccc1Cl` [Compound 15, N-[4-(2-Chlorophenyl)-2-dimethylaminothiazol-5-yl]-N'-(2,6-diisopropylphenyl)urea], the Inhibition rate % in experiment [1] (setting [3]) was found to be 99.2%.

Turning to `CCc1cccc(CC)c1NC(=O)Nc1sc(N2CCCCC2)nc1-c1ccccc1` [Compound 17, N-(2,6-Diethylphenyl)-N'-[4-phenyl-2-(N-piperidino)thiazol-5-yl)urea], the Inhibition rate % in experiment [1] (setting [3]) is given as 99.8%.

Turning to `CC(C)c1cccc(C(C)C)c1NC(=O)Nc1sc(N2CCCCC2)nc1-c1ccccc1Cl` [Compound 19, N-[4-(2-Chlorophenyl)-2-(N-piperidino)thiazol-5-yl]-N'-(2,6-diisopropylphenyl)urea], the Inhibition rate % in experiment [1] (setting [3]) is 99.9%.

The compound `CC(C)c1cccc(C(C)C)c1NC(=O)Nc1sc(N2CCOCC2)nc1-c1ccccc1Cl` [Compound 21, N-[4-(2-Chlorophenyl)-2-(N-morpholino)thiazol-5-yl]-N'-(2,6-diisopropylphenyl)urea] yielded an Inhibition rate % in experiment [1] (setting [3]) of 99.8%.

As for `CC(C)c1cccc(C(C)C)c1NC(=O)Nc1nc(-c2ccccc2)sc1-c1ccccc1Cl` [Compound 23, N-[5-(2-Chlorophenyl)-2-phenylthiazol-4-yl]-N'-(2,6-diisopropylphenyl)urea], the values for the Inhibition rate % in experiment [1] (compound concentration 0.01 µm) and in experiment [1] (setting [3]) were 59.4% and 99.6%, respectively. Also, the inhibition in vivo at 30 mg/kg in experiment [2] was 108%.

As for `CC(C)c1cccc(C(C)C)c1NC(=O)Nc1nc(N2CCOCC2)sc1-c1ccccc1Cl` [Compound 24, N-[5-(2-Chlorophenyl)-2-(N-morpholino)thiazol-4-yl]-N'-(2,6-diisopropylphenyl)urea], the Inhibition rate % in experiment [1] (setting [3]) stood at 97.9%.

For the compound `Cc1nc(NC(=O)Nc2c(C(C)C)cccc2C(C)C)c(-c2ccccc2Cl)s1` [Compound 25, N-[5-(2-Chlorophenyl)-2-methylthiazol-4-yl]-N'-(2,6-diisopropylphenyl)urea], the Inhibition rate % in experiment [1] (compound concentration 0.01 µm) is 88.1%. The inhibition in vivo at 30 mg/kg in experiment [2] was 39.1%.

As to `CCc1cccc(CC)c1NC(=O)Nc1nc(C)sc1-c1ccccc1Cl` [Compound 26, N-[5-(2-Chlorophenyl)-2-methylthiazol-4-yl]-N'-(2,6-diethylphenyl)urea], in experiment [1] (compound concentration 0.01 µm), the Inhibition rate % is 51.4%.

For the compound `Cc1ccccc1-c1sc(-c2ccccc2)nc1NC(=O)Nc1c(C(C)C)cccc1C(C)C` [Compound 27, N-(2,6-Diisopropylphenyl)-N'-[5-(2-methylphenyl)-2-phenylthiazol-4-yl]urea], the Inhibition rate % in experiment [1] (compound concentration 0.01 µm) is on record as 86.5%. In addition, the inhibition in vivo at 30 mg/kg in experiment [2] stood at 61.7%.

Compound `CCc1cccc(CC)c1NC(=O)Nc1nc(-c2ccccc2)sc1-c1ccccc1C` [Compound 28, N-(2,6-Diethylphenyl)-N'-[5-(2-methylphenyl)-2-phenylthiazol-4-yl]urea] yielded an Inhibition rate % in experiment [1] (compound concentration 0.01 µm) of 64.1%. The inhibition in vivo at 30 mg/kg in experiment [2] was 87.8%.

As to `Cc1nc(NC(=O)Nc2c(C(C)C)cccc2C(C)C)c(-c2ccccc2C)s1` [Compound 29, N-(2,6-Diisopropylphenyl)-N'-[2-methyl-5-(2-methylphenyl)thiazol-4-yl]urea], the Inhibition rate % in experiment [1] (compound concentration 0.01 µm) stood at 90.2%. Further, the inhibition in vivo at 30 mg/kg in experiment [2] amounted to 46.1%.

In turn, `CSc1ccccc1-c1sc(-c2ccccc2)nc1NC(=O)Nc1c(C(C)C)cccc1C(C)C` [Compound 30, N-(2,6-Diisopropylphenyl)-N'-[5-(2-methylthiophenyl)-2-phenylthiazol-4-yl]urea] had an Inhibition rate % in experiment [1] (compound concentration 0.01 µm) of 76.8%. In addition, in experiment [2], the inhibition in vivo at 30 mg/kg is 75.7%.

As for `CC(C)c1cccc(C(C)C)c1NC(=O)Nc1nc(-c2ccccc2)n(C)c1-c1ccccc1Cl` [Compound 35, N-[5-(2-Chlorophenyl)-1-methyl-2-phenylimidazol-4-yl]-N'-(2,6-diisopropylphenyl)urea], the Inhibition rate % in experiment [1] (compound concentration 0.01 µm) is reported as 33.5%; in experiment [1] (setting [3]) it was 99.6%.

`CC(C)c1cccc(C(C)C)c1NC(=O)Nc1c(-c2ccccc2Cl)nc(-c2ccccc2)n1Cc1ccccc1` [Compound 36, N-[1-Benzyl-4-(2-chlorophenyl)-2-phenylimidazol-5-yl]-N'-(2,6-diisopropylphenyl)urea] yielded an Inhibition rate % in experiment [1] (setting [3]) of 79.5%.

`CC(C)c1cccc(C(C)C)c1NC(=O)Nc1nc(-c2ccccc2)n(COCC[Si](C)(C)C)c1-c1ccccc1Cl` [Compound 40, N-[5-(2-Chlorophenyl)-2-phenyl-1-(2-trimethylsilyl)ethoxymethylimidazol-4-yl]-N'-(2,6-diisopropylphenyl)urea] gave an Inhibition rate % in experiment [1] (setting [3]) of 99.4%.

Consider `COCn1c(-c2ccccc2)nc(NC(=O)Nc2c(C(C)C)cccc2C(C)C)c1-c1ccccc1Cl` [Compound 42, N-[5-(2-Chlorophenyl)-1-methoxymethyl-2-phenylimidazol-4-yl]-N'-(2,6-diisopropylphenyl)urea], for which the Inhibition rate % in experiment [1] (setting [3]) is given as 99.2%.

For the compound `COc1ccc(Cn2c(-c3ccccc3)nc(NC(=O)Nc3c(C(C)C)cccc3C(C)C)c2-c2ccccc2Cl)cc1` [Compound 44, N-[5-(2-Chlorophenyl)-1-(4-methoxybenzyl)-2-phenylimidazol-4-yl]-N'-(2,6-diisopropylphenyl)urea], in experiment [1] (setting [3]), the Inhibition rate % was 99.2%.

In turn, `CC(C)c1cccc(C(C)C)c1NC(=O)Nc1nc(-c2ccccc2)[nH]c1-c1ccccc1Cl` [Compound 45, N-[4(5)-(2-Chlorophenyl)-2-phenylimidazol-5(4)-yl]-N'-(2,6-diisopropylphenyl)urea] yielded an Inhibition rate % in experiment [1] (setting [3]) of 77.9%.
